# Data: publication PMC11750672, “The in vivo metabolic pathway of Deg-AZM and in vitro investigations into the contribution of drug metabolizing enzymes and drug transporters in the drug interactions of Deg-AZM, a clinical-stage new transgelin agonist” (Frontiers in Pharmacology, 2025)
# What was measured:
# [1] = Exposure profiles of Deg-AZM and metabolites in rat plasma, urine, feces and bile (UPLC-QTOF-MS); assay type: in vivo, rats; conditions: / = not detected; for Proportion in total related substances, Feces: rat feces 0-24 h; for Proportion in total related substances, Plasma: rat plasma 0.167-8 h after oral Deg-AZM, by AUC0-t of chromatographic peak area; for Proportion in total related substances, Urine: rat urine 0-24 h
# Protocol: (§1) The plasma samples at 0.167 h, 0.5 h, 3 h and 8 h after administration were obtained from the study of tissue distribution in rats ([Gu et al., 2024]). Urine, feces and bile samples at 0–24 h after administration were obtained from the excretion study of a single gavage administration of 25 mg/kg Deg-AZM in rats ([Gu et al., 2024]).
# Plasma samples were precipitated with methanol at a ratio of 1:3. Urine samples were diluted with 50% methanol at a ratio of 1:80. The feces was thoroughly ground and sonicated with a 50% methanol at a ratio of 1 g/10 mL to obtain the homogenate, then the homogenate were precipitated with methanol at a ratio of 1:1. Bile samples were precipitated with 50% methanol at a ratio of 1:1. The above obtained samples were vortexed for 1 min and centrifugated at 4°C, 12,000 rpm for 10 min. Finally, the upper layer was analyzed using the UPLC-QTOF-MS system.
# The metabolites of Deg-AZM in the plasma, urine, feces and bile samples were identified by UPLC-QTOF-MS system. Liquid chromatography was performed on an ACQUITY UPLC^TM I-Class UPLC unit with a Waters ACQUITY UPLC HSS T3 (100 × 2.1 mm, 1.8 µm). A gradient program was employed with the mobile phase combining solvent A (0.02% formic acid in 5% acetonitrile) and solvent B (acetonitrile) as follows: 100% A (0–0.5 min), 100%–85% A (0.5–7 min), 85%–5% A (7–9 min), 5% A (9–12 min), 5%–100% A (12–15 min). The flow rate was 0.40 mL/min. The column temperature was maintained at 40°C.
# A Waters Q-TOF Xevo G2-XS Spectrometer equipped with ESI source under positive ion mode was utilized to conduct mass spectrometry detection, for which the MS^E mode was set at the mass range of 100–1,000 Da. The cone voltage was 40 V. The desolvation temperature was set at 500°C and source temperature was 100°C. The desolvation gas flow rate was 800 L/h and the cone gas flow rate was 50 L/h. In MS^E centroid mode, the MS data were acquired with the low energy function in the trap collision energy (6 eV), and the tandem mass data were acquired with the high energy function in the ramp trap collision energy (35–45 eV).
# The extraction ion chromatogram of plasma samples at 0.167 h, 0.5 h, 3 h and 8 h after administration of Deg-AZM in rats was shown in Figure 2. The extraction ion chromatogram of urine, feces and bile samples collected from 0 to 24 h after oral administration of Deg-AZM in rats was shown in Figure 3. The AUC0-t of Deg-AZM and its metabolites in plasma sample were calculated by trapezoidal rule based on the chromatographic peak area. 21 metabolites were found in rat plasma, with M0 (Deg-AZM) and metabolite M2 (demethylated) being the main exposure forms in rat plasma. M0 and M2 accounted for 61.6% and 23.0% of the total related substances in rat plasma, respectively. The relative proportions of Deg-AZM and its metabolites in urine, feces and bile samples were evaluated by the chromatographic peak area, as shown in Figure 4. The detailed proportion of Deg-AZM and its metabolites could be found in Supplementary Table S1. M0 and 28 metabolites were found in the urine of rats. […] M0 and 42 metabolites were found in the feces of rats. Metabolite M1-2 (monohydroxylation, 18.1%) and metabolite M2 (16.6%) were the main forms of fecal excretion of Deg-AZM in rats after oral administration. M0 and 38 metabolites were found in the bile samples of rats. Metabolite M1-2 (monohydroxylation, 19.2%) and metabolite M2 (16.5%) were the main forms of biliary excretion of Deg-AZM in rats after oral administration.
# [2] = Excretion and material balance in rats (urine, feces 0-24 h); assay type: in vivo; conditions: through the kidneys and urine
# Protocol: as §1
# The types and proportions of metabolites in the excretion pathway were elucidated in this study. […] Based on the peak area in this study, the total amount of metabolites in urine and feces of rats was 0.589 times and 9.96 times that of the original form of Deg-AZM, respectively. The total amount of Deg-AZM excreted in its original form and various metabolites in urine and feces was 23.7% and 19.8% of the administered dose, respectively, with a material balance coefficient of 43.5%. Deg-AZM was mainly excreted in the form of its original form M0 (cumulative excretion fraction of 14.9%) and metabolite M2 (cumulative excretion fraction of 5.33%) through the kidneys and urine, and in the form of metabolite M1-2 (cumulative excretion fraction of 4.29%) and M2 (cumulative excretion fraction of 3.93%) through the intestines and feces. […] It is necessary to obtain standard samples of the main metabolites for accurate quantification or use isotope tracing techniques to further improve material balance research in the clinical stage.
# [3] = tested on: CYP1A2; test: CYP induction (mRNA, qPCR) in human hepatocytes; assay type: in vitro ADME; conditions: positive control 50 μM
# Excerpt: (§2) After culture and complete induction, total mRNA was extracted by TRNzol RNA Extraction Kit (purchased from Tiangen Biochemical Technology Co., Ltd., Beijing). The RNA was reverse transcribed into cDNA according to the instructions of the Transcriptor First Strand cDNA Synthesis Kit (purchased from Roche, Switzerland). Using reverse transcribed cDNA as a template, amplifying the internal reference genes of β-Actin of the sample and target genes of CYP1A2, CYP2B6, and CYP3A4 respectively to compare the expression differences.
# [4] = tested on: CYP2B6; test: CYP induction (mRNA, qPCR) in human hepatocytes; conditions: positive control 1 mM
# Excerpt: as §2
# [5] = Bidirectional transport in Caco-2 cell monolayer; assay type: in vitro ADME, human; conditions: human, Caco-2, efflux positive control, (−) without quinidine
# Protocol: (§3) The human colon adenocarcinoma Caco-2 cell line was provided by Institute of Basic Medicine, Chinese Academy of Medical Sciences (Beijing, China). Caco-2 cells were cultured in a high sugar DMEM medium containing 10% (v/v) fetal bovine serum at 37°C and 5% CO2 incubator. Caco-2 cells (2.5 ×10^5/mL) was inoculated into Transwell polycarbonate membrane 12 well plate. The culture medium was changed every 2 days for the first 14 days, and then every day. After 21 consecutive days, fully differentiated cell monolayers were obtained for drug transport assays.
# (§4) Transepithelial electrical resistance (TEER) was used to indicate monolayer integrity. The electrode of the Millcell ERS-2 voltammeter was placed in HBSS solution for 20 min to pre-balance. At the same time, the culture medium was removed from the Transwell culture plate, 0.5 mL of pre-heated HBSS solution was added into the Apical (AP) of transwell, 1.5 mL of pre-heated HBSS solution was added into the Basolateral (BL) of transwell. After that, the transwell was balanced at 37°C for 20 min and then replaced the HBSS solution with the pre-heated HBSS solution, the TEER value was measured finally. Caco-2 cell monolayers with TEER >350 Ω cm^2 which means that the cells have formed a tight monolayer, were used for the experiment. The TEER value was calculated according to the following formula: TEER=TEERT ‐ TEERc×A where TEERT represented the TEER value (Ω) of the measured Transwell chamber with Caco-2 cells, TEERC was the TEER value (Ω) of the transwell chamber in the control group, and A was the membrane area of the transwell cavity (1.12 cm^2 in this experiment).
# (§5) In order to evaluate the usability of the Transwell model research, [^3H] Propranolol (0.5 μCi/mL) and [^14C] PEG4000 (1 μCi/mL) served as high-permeability and impermeability controls to verify the uptake direction on Caco-2 cell monolayer, respectively. Rhodamine 123 was used as a positive control for efflux mechanism in bidirectional transport assay on Caco-2 cell monolayer.
# (§6) The transmembrane permeability of Deg-AZM (2, 10 or 50 µM) and the potential to inhibit P-gp by Deg-AZM (2, 10 or 50 µM) were evaluated using Caco-2 cell monolayer both apical-to-basolateral (A-B) and basolateral-to-apical (B-A) directions at 37°C for 1 h, the experiments were conducted using quinidine (50 μM) as the inhibitor for P-gp. At the end of incubation, receiver and donor samples were both diluted by assay buffer and analyzed by LC-MS/MS.
# [6] = tested on: T1, P-gp; test: Bidirectional transport in Caco-2 cell monolayer with P-gp inhibitor quinidine; assay type: in vitro ADME, human; conditions: human, Caco-2, with quinidine 50 μM; efflux positive control, (+) quinidine; n = 3
# T1 construct: evaluated using Caco-2 cell monolayer both apical-to-basolateral (A-B) and basolateral-to-apical (B-A) directions; endogenous in cells; host or cells: Caco-2
# Protocol: as §3, §4, §5, §6
# [7] = tested on: Caco-2 cell monolayer; test: Bidirectional transport in Caco-2 cell monolayer; assay type: in vitro ADME, human; conditions: 0.5 μCi/mL, high-permeability control; n = 3
# Protocol: as §3, §4, §5, §6
# [8] = single gavage 25 mg/kg Deg-AZM, by peak area
# [9] = single gavage 25 mg/kg Deg-AZM, by peak area, 25 mg/kg
compound,measurement,setting,value
CCC1OC(=O)C(C)C(O)C(C)C(O)C(C)(O)CC(C)CNC(C)C(O)C1(C)O (centres unmarked) [M2],"Proportion in total related substances, Bile","[1]; rat bile 0-24 h, single gavage 25 mg/kg Deg-AZM, by peak area",16.5%
same,"Proportion in total related substances, Feces",[1]; [8],16.6%
same,"Proportion in total related substances, Plasma",[1],23.0%
same,"Proportion in total related substances, Urine",[1]; [8],22.5%
same,"Cumulative excretion fraction, urine",[2],5.33%
CCC(O)C(C)(O)C(O)C(C)N(C)CC(C)CC(C)(O)C(O)C(C)C(O)C(C)C(=O)O (centres unmarked) [M11],"Proportion in total related substances, Feces",[1]; [9],1.24%
same,"Proportion in total related substances, Plasma",[1],2.04%
same,"Proportion in total related substances, Urine",[1]; [9],0.224%
"COc1ccc2[nH]c([S+]([O-])Cc3ncc(C)c(OC)c3C)nc2c1 (centres unmarked) [Omeprazole, reference compound]","CYP1A2 mRNA induction, times of control group",[3]; hepatocyte batch HUB,48.2
same,"CYP1A2 mRNA induction, times of control group",[3]; hepatocyte batch LHuf 17905B,56.0
same,"CYP1A2 mRNA induction, times of control group",[3]; hepatocyte batch MWB,64.6
"CCC1(c2ccccc2)C(=O)NC(=O)NC1=O [Phenobarbital, reference compound]","CYP2B6 mRNA induction, times of control group",[4]; hepatocyte batch HUB,13.5
same,"CYP2B6 mRNA induction, times of control group",[4]; hepatocyte batch LHuf 17905B,10.3
same,"CYP2B6 mRNA induction, times of control group",[4]; hepatocyte batch MWB,14.7
"COC(=O)c1ccccc1-c1c2ccc(=N)cc-2oc2cc(N)ccc12 [Rhodamine 123, reference compound]",Papp A→B,[5]; n = 3,0.0031 ± 0.00141 ×10⁻⁶ cm/s
same,Papp B→A,[5]; n = 3,0.166 ± 0.0287 ×10⁻⁶ cm/s
same,efflux ratio,[5]; read-out: ER,53.5
same,Papp A→B,[6],0.00478 ± 0.000709 ×10⁻⁶ cm/s
same,Papp B→A,[6],0.0417 ± 0.0152 ×10⁻⁶ cm/s
"CC(C)NCC(O)COc1cccc2ccccc12 (centres unmarked) [[^3H] Propranolol, reference compound]",P app AP→BL,[7],9.64 ± 1.05 ×10^–6 cm/s
